Laboratory results taken from patent US10040759B2, “Substituted azetidinyl compounds as GlyT1 inhibitors” (DART NEUROSCIENCE (CAYMAN) LTD., priority 2014, dated 2018).

Target: T1, GlyT1 (Homo sapiens, UniProt P48067)
T1 construct: expressed in transfected cells
T1 sequence (P48067 1-706): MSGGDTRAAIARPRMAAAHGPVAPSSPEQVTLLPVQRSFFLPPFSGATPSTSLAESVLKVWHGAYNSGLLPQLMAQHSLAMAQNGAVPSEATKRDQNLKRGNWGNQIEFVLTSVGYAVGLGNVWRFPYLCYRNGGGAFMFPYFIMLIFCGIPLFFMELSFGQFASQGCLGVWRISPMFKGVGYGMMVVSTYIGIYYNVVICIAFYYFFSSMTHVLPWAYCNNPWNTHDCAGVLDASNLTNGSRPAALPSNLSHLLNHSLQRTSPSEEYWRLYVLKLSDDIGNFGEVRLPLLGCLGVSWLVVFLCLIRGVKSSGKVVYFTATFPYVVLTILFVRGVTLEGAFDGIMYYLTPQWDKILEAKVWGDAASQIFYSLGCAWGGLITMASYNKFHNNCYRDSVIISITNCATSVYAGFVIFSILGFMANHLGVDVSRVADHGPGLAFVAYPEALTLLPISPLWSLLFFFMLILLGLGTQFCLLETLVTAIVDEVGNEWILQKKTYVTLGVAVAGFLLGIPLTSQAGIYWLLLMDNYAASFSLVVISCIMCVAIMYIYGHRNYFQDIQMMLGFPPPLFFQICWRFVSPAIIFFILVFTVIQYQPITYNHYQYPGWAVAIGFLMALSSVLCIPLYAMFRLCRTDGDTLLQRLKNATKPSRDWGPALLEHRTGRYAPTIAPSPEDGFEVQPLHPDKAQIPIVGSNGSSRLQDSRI
Test: Glycine Transporter 1 (GlyT1) uptake assay, scintillation proximity assay of [14C]-glycine uptake
Assay type: cell-based
Conditions: [14C]-glycine uptake; read-out: GlyT1 (pIC50) (converted)
In short: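 IC50 values were derived by four-parameter logistic fitting of counts. The 2× compound solutions were made by 1:100 dilution into HBSS of DMSO serial dilutions.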

Compound	IC50 [nM]
COc1c(C#N)ccc(C2CCCC2)c1C(=O)N1CC(c2ncc(C(F)(F)F)cc2Cl)C1 [Example 209, 3-{3-[3-Chloro-5-(trifluoromethyl)pyridin-2-yl]azetidine-1-carbonyl}-4-cyclopentyl-2-methoxybenzonitrile]	100 to 1000
COc1c(C#N)ccc(C2CCCC2)c1C(=O)N1CC(c2ncc(C(F)(F)F)cc2F)C1 [Example 210, 4-Cyclopentyl-3-{3-[3-fluoro-5-(trifluoromethyl)pyridin-2-yl]azetidine-1-carbonyl}-2-methoxybenzonitrile]	< 100
COc1c(C#N)ccc(C2CCCC2)c1C(=O)N1CC(Oc2ccc(C(F)(F)F)cc2)C1 [Example 211, 4-Cyclopentyl-2-methoxy-3-{3-[4-(trifluoromethyl)phenoxy]azetidine-1-carbonyl}benzonitrile]	100 to 1000
COc1c(C#N)ccc(C2CCCC2)c1C(=O)N1CC(Oc2c(F)cc(F)cc2F)C1 [Example 212, 4-Cyclopentyl-2-methoxy-3-[3-(2,4,6-trifluorophenoxy)azetidine-1-carbonyl]benzonitrile]	100 to 1000
COc1c(S(C)(=O)=O)ccc(OC(C)C)c1C(=O)N1CC(c2ccc(C(F)(F)F)cn2)C1 [Example 213, 2-{1-[3-Methanesulfonyl-2-methoxy-6-(propan-2-yloxy)benzoyl]azetidin-3-yl}-5-(trifluoromethyl)pyridine]	100 to 1000
COc1c(S(C)(=O)=O)ccc(OC(C)C)c1C(=O)N1CC(c2ncc(C(F)(F)F)cc2Cl)C1 [Example 214, 3-Chloro-2-{1-[3-methanesulfonyl-2-methoxy-6-(propan-2-yloxy)benzoyl]azetidin-3-yl}-5-(trifluoromethyl)pyridine]	< 100
COc1c(S(C)(=O)=O)ccc(OC(C)C)c1C(=O)N1CC(c2ncc(C(F)(F)F)cc2F)C1 [Example 215, 3-Fluoro-2-{1-[3-methanesulfonyl-2-methoxy-6-(propan-2-yloxy)benzoyl]azetidin-3-yl}-5-(trifluoromethyl)pyridine]	100 to 1000
COc1c(S(C)(=O)=O)ccc(OC(C)C)c1C(=O)N1CC(c2ccc(F)c(F)c2)C1 [Example 216, 3-(3,4-Difluorophenyl)-1-[3-methanesulfonyl-2-methoxy-6-(propan-2-yloxy)benzoyl]azetidine]	100 to 1000
COc1c(S(C)(=O)=O)ccc(OC(C)C)c1C(=O)N1CC(c2ccc(C(F)(F)F)cc2)C1 [Example 217, 1-[3-Methanesulfonyl-2-methoxy-6-(propan-2-yloxy)benzoyl]-3-[4-(trifluoromethyl)phenyl]azetidine]	100 to 1000
COc1c(S(C)(=O)=O)ccc(OC(C)C)c1C(=O)N1CC(Oc2ccc(C(F)(F)F)cc2)C1 [Example 218, 1-[3-Methanesulfonyl-2-methoxy-6-(propan-2-yloxy)benzoyl]-3-[4-(trifluoromethyl)phenoxy]azetidine]	100 to 1000
COc1c(S(C)(=O)=O)ccc(OC(C)C)c1C(=O)N1CC(Oc2ccc(Cl)cc2)C1 [Example 219, 3-(4-Chlorophenoxy)-1-[3-methanesulfonyl-2-methoxy-6-(propan-2-yloxy)benzoyl]azetidine]	100 to 1000
COc1c(S(C)(=O)=O)ccc(OC(C)C)c1C(=O)N1CC(Oc2ccc(F)cc2F)C1 [Example 220, 3-(2,4-Difluorophenoxy)-1-[3-methanesulfonyl-2-methoxy-6-(propan-2-yloxy)benzoyl]azetidine]	100 to 1000
COc1c(S(C)(=O)=O)ccc(OC(C)C)c1C(=O)N1CC(Oc2c(F)cc(F)cc2F)C1 [Example 221, 1-[3-Methanesulfonyl-2-methoxy-6-(propan-2-yloxy)benzoyl]-3-(2,4,6-trifluorophenoxy)azetidine]	< 100
COc1c(S(C)(=O)=O)ccc(OCC(F)(F)F)c1C(=O)N1CC(Oc2ccc(Cl)cc2)C1 [Example 222, 3-(4-Chlorophenoxy)-1-[3-methanesulfonyl-2-methoxy-6-(2,2,2-trifluoroethoxy)benzoyl]azetidine]	100 to 1000
